According to patent publication US20050009886A1, “1,4-Dihydropyridine derivative with a guaiacoxypropanolamine and/or phenoxypropanolamine moiety” (priority 1998, published 2005):

Experiments:
[1] = test system: Calcium; test: Calcium antagonism (pKCa^−1, Table 2)
[2] = test system: thoracic aorta; test: Isolated thoracic aorta contraction caused by 75 mM KCl; set-up: species or system Wistar rat; conditions: 10^−8M; 75 mM KCl contraction
Procedure: After sacrificing Wistar rat of weight between 300-500 gm, the thoracic aorta was immediately removed and placed in cold Kreb's solution. The fatty connecting tissue surrounding the vessel wall was removed and the thoracic aorta was cut into rings of length 5 mm. The two ends of each ring was pieced and fixed with “Z” shaped platinum wires. […] The sample was given 1 gm of tension and equilibrated for 60 minutes before the following experiments were carried out:
After thoracic aorta had reached equilibrium in the tissue trough, the normal Kreb's solution in the trough was replaced with 75 mM KCl solution to induce vasoconstriction. When the results had been recorded for at least 35 minutes, the aorta was repeatedly rinsed with normal Kreb's solution. After the aorta had re-equilibrated and at least rested for 60 minutes, different concentrations (10^−8, 10^−7, 10^−6, and 10^−5M) of compound 1 were separately added. 30 minutes later, 75 mM KCl was added again to induce vasoconstriction. This method was used to compare the differences in contraction induced by 75 mM KCl on thoracic aorta pre-treated and non-treated with compound 1.
0.1 μM of BayK8644 was first added into the tissue trough. 10 minutes later, 75 mM of concentrated Potassium solution was added to induce thoracic aorta contraction. When vasoconstriction had reached stability, different concentrations of (10^−8, 10^−7, 10^−6, and 10^−5M) compound 1 were separately added. The effects of aorta contraction induced by concentrated Potassium solution were observed.

[3] = Heart rate and blood pressure in living rat; format: in vivo, Wistar rats; conditions: 1 mg/kg via femoral vein, anaesthetized rat
Source text: Male Wistar rats, weighing 200˜300 g were abdominal anaesthetized with pentobarbital sodium. Tracheal was cannulated to maintain normal respiration. Polyethylene tube was inserted into the left femoral vein to facilitate drug administration. A 3-way stopcock was used, with one end connected to a syringe for drug injection, while the other end was connected to the syringe filled with physiological saline. The latter was used to prevent residual drugs in the polyethylene tube after injection, which would affect experimental accuracy.
The right femoral artery was also inserted with polyethylene, and a 3-way stopcock was used too, where one end was connected to heparin solution to prevent embolism. The other end was connected to a Disposable Diaphragm Dome, TA1019, and linked to a transducer. Through an amplifier, a recorder recorded the overall and average arterial pressure; heart rate to evaluate the effect of drug on blood pressure and heart rate.

[4] = target: T1, β-adrenoreceptor (β1) (Rattus norvegicus, UniProt P18090); test: Isolated left atrium, L-isoproterenol-induced contractility increase (pA2); set-up: species or system Wistar rat; conditions: for β1 Left Atrium (Slope): slope of Schild regression; for β1 Value of pA2 Left Atrium: vs L-isoproterenol, electrically stimulated
T1 construct: The right and left atria were then separated; from tissue; host or cells: isolated rat right atrium (spontaneously beating) and left atrium (electrically paced)
T1 sequence (P18090 whole entry): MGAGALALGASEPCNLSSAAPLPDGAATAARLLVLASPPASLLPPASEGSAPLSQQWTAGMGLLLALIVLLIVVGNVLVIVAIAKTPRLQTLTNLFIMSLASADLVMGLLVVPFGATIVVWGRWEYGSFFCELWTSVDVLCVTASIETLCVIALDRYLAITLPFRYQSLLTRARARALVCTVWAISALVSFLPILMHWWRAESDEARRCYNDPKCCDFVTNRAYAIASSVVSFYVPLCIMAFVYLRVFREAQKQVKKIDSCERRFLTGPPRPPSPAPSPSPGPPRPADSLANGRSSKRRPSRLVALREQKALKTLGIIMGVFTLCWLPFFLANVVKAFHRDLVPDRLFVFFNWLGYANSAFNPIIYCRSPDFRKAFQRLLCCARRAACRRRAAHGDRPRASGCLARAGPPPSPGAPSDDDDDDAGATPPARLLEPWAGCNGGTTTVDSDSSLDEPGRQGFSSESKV
Procedure: The inspontaneously-beating left atrial tissue was obtained from rat's isolated right atrial tissue experiments. […] The contraction rate was 1 Hz and the resting tension 0.5 gm. After 60 minutes of equilibration, the following experiments were performed:
(a) Completion of cumulative concentration-response curve: similar to experimental method on isolated right atrium;
(b) Calculation of pA2 value: similar to calculation method on isolated right atrium.

[5] = target: T2, β2 (Cavia porcellus, UniProt Q8K4Z4); test: Guinea pig's isolated tracheal, L-isoproterenol relaxation of carbachol contraction (pA2); conditions: for β2 Tracheal (slope): slope of Schild regression; for β2 Value of pA2 Tracheal: vs L-isoproterenol, carbachol 10^−6 M contraction
T2 construct: a portion of tracheal approximately 4 cm long was removed; from tissue; host or cells: isolated trachea of reserpine-pretreated guinea pigs
T2 sequence (Q8K4Z4 whole entry): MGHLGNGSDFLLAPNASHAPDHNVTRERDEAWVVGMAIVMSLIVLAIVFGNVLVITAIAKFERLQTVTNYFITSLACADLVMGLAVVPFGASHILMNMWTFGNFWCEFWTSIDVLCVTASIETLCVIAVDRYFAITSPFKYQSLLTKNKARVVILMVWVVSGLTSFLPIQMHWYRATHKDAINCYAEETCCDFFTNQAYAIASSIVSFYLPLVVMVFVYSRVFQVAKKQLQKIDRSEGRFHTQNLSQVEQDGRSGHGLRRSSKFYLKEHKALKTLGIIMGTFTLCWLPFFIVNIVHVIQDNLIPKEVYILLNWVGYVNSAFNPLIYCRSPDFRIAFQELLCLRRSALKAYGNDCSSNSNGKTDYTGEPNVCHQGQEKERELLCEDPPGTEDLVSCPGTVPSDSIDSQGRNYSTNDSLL
Procedure: Guinea pigs of weight between 300˜500 gm were used. […] After the guinea pigs were sacrificed, a slit was made along the neck, and a portion of tracheal approximately 4 cm long was removed. […] The two ends of the tracheal were clamped with frog-heart shaped clamps, one end was fixed at the bottom of tissue bath filled with 20 ml of Kreb's solution, maintained at 37° C., while the other end was connected to a force transducer. Through a COULBOURN AT-High-Speed Videograph, long isometric contractions were recorded. After the sample was given 1.5 gm of tension and equilibrated, the following experiments were performed:
Then the tracheal was repeatedly washed with Kreb's solution for 20 minutes and 10−6 M of carbochol was added to cause contraction in the guinea pig's tracheal. […] This is the test group.
(b) Calculation of pA2: similar to the calculation method for isolated right atrium experiment.

[6] = target: T1, β-adrenoreceptor (β1); test: Isolated right atrium, L-isoproterenol-induced heart rate increase (pA2); set-up: species or system Wistar rat; conditions: for β1/β2: from pA2 difference right atrium vs tracheal; for β1 Right Atrium (Slope): slope of Schild regression; for β1 Value of pA2 Right Atrium: vs L-isoproterenol, Schild plot
Procedure: The right and left atria were then separated. The spontaneously-beating right atria was clipped on both end by heart shaped clips, where one end was fixed at the bottom of 10 ml of tissue bath made of physiological saline solution, and temperature maintained at 37° C. The other end of the atria was connected to a force transducer, and isometric contractions and beating rate of the right atria were recorded by COULBOURN AT-High-Speed VideoFigure. After the samples were given 250 mg of contractions and reach equilibrium the following experiments were carried out: • (a) β-adrenoceptor blocking action
Cumulative administration interval was when the previous concentration reached its greatest effect, the next concentration would be immediately given.
The equation is as follows: pA2=−Log KB Log(DRADJ−1)=nlog[B]−LogKB [formula]
[B] Test compound concentration in moles • KB: equilibrium dissociation constant • n: value of slope DR: test EC50 divided by control EC50 • CF: EC50 of second or third control groups divided by EC50 of first control group (c) Effect of Compound on the Increase of Spontaneous Beating in Right Atrium Caused by CaCl2

[7] = test system: isolated atria; test: Direct effect (intrinsic sympathomimetic activity) on reserpine pretreated isolated atria; set-up: species or system Wistar rat; conditions: for direct effect on right atrium beating rate and left atrium isometric contractions: cumulative administration, reserpine pretreated
Procedure: Wistar rats of weight between 200˜300 gm were used. 18˜24 hours before the experiment, 5 mg/kg of reserpine was injected via abdominal cavity to remove all endogenous catecholamines. Prior experiment, Wistar rats were sacrificed, the heart was immediately removed and placed in Kreb's solution aerated with air mixture and maintained at room temperature. The right and left atria were carefully separated.

Compound | Calcium Antagonism PKCa^−1 [1] | Aorta Relaxation [2] | Lowering of Blood Pressure [3] | Reduction of Heart Rate [3] | β1 Left Atrium (Slope) [4] | β1 Value of pA2 Left Atrium [4] | β2 Tracheal (slope) [5] | β2 Value of pA2 Tracheal [5] | Ratio of β1 and Calcium Antagonism [6] | β1/β2 [6] | β1 Right Atrium (Slope) [6] | β1 Value of pA2 Right Atrium [6] | atrial blocking effect ([7]; 3×10−4M) | direct effect on right atrium beating rate and left atrium isometric contractions [7]
CCOC(=O)C1=C(C)NC(C)=C(C(=O)OCC)C1c1cc([N+](=O)[O-])ccc1OCC(O)CNCCOc1ccccc1OC (stereo not drawn) [Compound 9] | 8.12 ± 0.32 | 47 ± 2% | 85 ± 6 mmHg | 40 ± 5 beats/min | (0.91 ± 0.18) | 7.12 ± 0.09 | (0.88 ± 0.23) | 7.33 ± 0.24 | 0.07 | 1.30 | (0.88 ± 0.09) | 7.78 ± 0.12 | – | –
COC(=O)C1=C(C)NC(C)=C(C(=O)OC)C1c1ccc(OCC(O)CNCCOc2ccccc2OC)c(OC)c1 (stereo not drawn) [Compound 2, 4-{{N-{4-[2-hydroxy-3-(2-methoxy-1-oxyethyl-aminobenzene)propoxy]-3-methoxy}phenyl}}-2,6-dimethyl-3,5-dicarbo-methoxy-1,4-dihydropyridine] | 7.91 ± 0.35 | 40 ± 4% | 75 ± 2 mmHg | 35 ± 4 beats/min | (0.91 ± 0.21) | 6.93 ± 0.34 | (0.88 ± 0.12) | 7.20 ± 0.45 | 0.09 | 1.28 | (0.88 ± 0.09) | 7.36 ± 0.65 | – | –
CCOC(=O)C1=C(C)NC(C)=C(C(=O)OCC)C1c1ccc(OCC(O)CNCCOc2ccccc2OC)c(OC)c1 (stereo not drawn) [Compound 3, 4-{{N-{4-[2-hydroxy-3-(2-methoxy-1-oxyethyl-aminobenzene)propoxy]-3-methoxy)phenyl}}-2,6-dimethyl-3,5-dicarboethoxy-1,4-dihydropyridine] | 7.96 ± 0.27 | 41 ± 2% | 78 ± 5 mmHg | 37 ± 5 beats/min | (0.89 ± 0.03) | 6.97 ± 0.12 | (0.92 ± 0.23) | 7.31 ± 0.23 | 0.08 | 1.26 | (0.92 ± 0.27) | 7.47 ± 0.38 | – | –
CCOC(=O)C1=C(C)NC(C)=C(C(=O)OCC)C1c1cc(Cl)ccc1OCC(O)CNC(C)(C)C (stereo not drawn) [Compound 4] | 7.94 ± 0.56 | 35 ± 5% | 76 ± 6 mmHg | 33 ± 3 beats/min | (0.92 ± 0.12) | 6.90 ± 0.35 | (0.87 ± 0.18) | 7.27 ± 0.32 | 0.08 | 1.31 | (0.83 ± 0.12) | 7.38 ± 0.12 | – | –
CCOC(=O)C1=C(C)NC(C)=C(C(=O)OCC)C1c1cc(Cl)ccc1OCC(O)CNCCOc1ccccc1OC (stereo not drawn) [Compound 6] | 8.01 ± 0.45 | 45 ± 4% | 80 ± 3 mmHg | 35 ± 5 beats/min | (0.91 ± 0.09) | 7.01 ± 0.28 | (0.90 ± 0.19) | 7.31 ± 0.19 | 0.11 | 1.29 | (0.88 ± 0.12) | 7.41 ± 0.34 | – | –
CC(C)NCC(O)COc1ccc(CC(N)=O)cc1 (stereo not drawn) [atenolol] | – | – | – | – | – | – | – | – | – | – | – | – | almost does not have atrial blocking effect | –
CCOC(=O)C1=C(C)NC(C)=C(C(=O)OCC)C1c1cc([N+](=O)[O-])ccc1OCC(O)CNC(C)(C)C (stereo not drawn) [Compound 8] | 8.09 ± 0.13 | 43 ± 3% | 80 ± 3 mmHg | 40 ± 4 beats/min | (0.89 ± 0.12) | 7.03 ± 0.18 | (0.92 ± 0.17) | 7.27 ± 0.19 | 0.08 | 1.29 | (0.83 ± 0.21) | 7.89 ± 0.23 | – | –
CCOC(=O)C1=C(C)NC(C)=C(C(=O)OCC)C1c1ccc(OCC(O)CNCCOc2ccccc2OC)c(Cl)c1 (stereo not drawn) [Compound 7, 4-{{N-{4-[2-hydroxy-3-(2-methoxy-1-oxyethyl-aminobenzene)propoxy]-3-choloro}phenyl} }-2,6-dimethyl-3,5-dicarbo-ethoxy-1,4-dihydropyridine] | 8.06 ± 0.27 | 45 ± 5% | 82 ± 6 mmHg | 40 ± 2 beats/min | (0.88 ± 0.27) | 6.97 ± 0.29 | (0.89 ± 0.21) | 7.28 ± 0.21 | 0.07 | 1.34 | (0.91 ± 0.08) | 7.77 ± 0.34 | – | –
CC(C)NC[C@H](O)c1ccc(O)c(O)c1 [L-isoproterenol] | – | – | – | – | – | – | – | – | – | – | – | – | – | dose-dependently increase the right atrium beating rate and left atrium isometric contractions
CCCCNCC(O)COc1ccc(Cl)cc1C1C(C(=O)OCC)=C(C)NC(C)=C1C(=O)OCC (stereo not drawn) [Compound 5] | 7.89 ± 0.34 | 33 ± 2% | 74 ± 4 mmHg | 32 ± 4 beats/min | (0.93 ± 0.19) | 6.91 ± 0.09 | (0.91 ± 0.21) | 7.24 ± 0.12 | 0.10 | 1.33 | (0.91 ± 0.23) | 7.37 ± 0.27 | – | –
CC(C)NCC(O)COc1cccc2ccccc12 (stereo not drawn) [Propranolol] | – | – | – | – | – | – | – | – | – | – | – | – | – | could retard the beating rate and isometric contractions
